Test results as given in patent US6441039B1, “Gastro-intestinal adverse effect-free composition comprising an L-carnitine replacement” (priority 1998, dated 2002).
Where “and” joins values, the source holds several entries; their conditions need not be identical. Equal values may be shown once. Where a name gives a salt, the structure may show the parent alone. Marks after values point to notes of the source that are not given here.

Columns and labels:
[1] = system: gastrointestinal motility; assay: charcoal propulsion test, intestinal motility after single oral dose
Protocol: A study on the effect on intestinal motility of L-carnitine acid fumarate vs. L-carnitine L-tartrate administered by the oral route to the rat at a single dose, using the charcoal propulsion test, is hereinbelow reported.
35-day old, Hsd Sprague Dawley (SD) male rats (Harlan), weighing 125-150 g were used in the study. The rats were supplied by Harlan Nossan S.r.l., 8, Via E. Fermi, 20050 Correzzana (MI)—Italy.
Eight male rats/group were treated orally with L-Carnitine acid Fumarate, at the doses of 430-855 and 1710 mg/10 ml/kg, and with L-Carnitine L-Tartrate at the doses of 365-730 and 1455 mg/10 ml/kg.
The doses of the two compounds were chosen as equimolar to 250-500 and 1000 mg/kg of L-Carnitine Inner Salt.
Two additional groups, each consisting of eight males, were set up and orally treated respectively with the vehicle (Control group—0.5% Carboxymethylcellulose (MC) in deionized water: 10 ml/kg) or with Atropine (30 mg/10 ml/kg) as reference standard.
The animals were subdivided at random (in number of 4/cage) into the different dosage groups according to the following scheme:
Forty-five minutes after the administration of all the above reported substances, each rat received orally 1.5 ml of a 10% charcoal suspension.
Exactly twenty minutes after dosing with charcoal suspension the rats were sacrificed; then the distance the charcoal meal had travelled throughout the intestine (from the pyloric sphincter towards the caecum) was measured and expressed as a percentage of the total gut length.

[2] = oral intake, dose-related; cited from earlier work
[3] = individual rats, oral 30 mg/10 ml/kg

**Q.** Which “Distance travelled as % of total intestine length (individual rat)” value [1, 3] does the source give for `CN1[C@@H]2CC[C@H]1C[C@@H](OC(=O)C(CO)c1ccccc1)C2` (stereo partly drawn) [Atropine] here?
**A.** 48.74% and 39.68% and 37.50% and 46.56% and 44.07% and 44.96% and 42.06% and 41.60%

**Q.** And the “Distance travelled by charcoal (individual rat)” value [1, 3]?
**A.** 58 cm (2×) and 50 cm and 45 cm and 61 cm and 52 cm (2×) and 53 cm

**Q.** And the “% change from vehicle” value ([1]; rat, oral 30 mg/10 ml/kg)?
**A.** −30.87%

**Q.** What about the “change in gastrointestinal motility vs control group” value ([1]; rat, oral 30 mg/kg) of the same compound?
**A.** statistically highly significant (p<0.001) decrease in gastrointestinal motility

**Q.** What about the “Distance travelled as % of total intestine length (mean)” value ([1]; rat, oral single dose 30 mg/10 ml/kg, n=8, p<0.001 vs control) of the same compound?
**A.** 43.15 ▴ %

**Q.** Which “gastrointestinal adverse effect in users” value [2] does the source give for `C[N+](C)(C)C[C@H](O)CC(=O)[O-]` [L-carnitine, L-carnitine inner salt] here?
**A.** episodes of diarrhoea have been frequently reported
